How the values were obtained:
Format in all cases: biochemical
[1] = target: T1, kinase domain of the human TrkA receptor (Homo sapiens, UniProt P04629); assay: TrkA tyrosine kinase assay (33P, polyGluTyr substrate); conditions: 30 uM ATP, 0.1 mg/ml PGT
T1 construct: The kinase domain of the human TrkA receptor is expressed in Sf9 insect cells as a histidine (His)-fusion protein; His; made in house; host or cells: Sf9 insect cells (baculovirus)
Description: The ability of compounds of the present invention to inhibit tyrosine kinase activity of TrkA may be measured using a recombinant enzyme in an assay that measures the ability of compounds to inhibit the phosphorylation of the exogenous substrate, polyGluTyr (PGT, 4:1). The kinase domain of the human TrkA receptor is expressed in Sf9 insect cells as a histidine (His)-fusion protein using a baculovirus expression system. The protein is purified from the lysates of these cells using an Ni—NTA affinity column. After the recombinant enzyme is purified, it is activated by incubation with cold ATP. The enzyme assay is performed in a 96-well plate. Test compounds are first dissolved in dimethylsulfoxide (DMSO) and then serially-diluted in a 96-well plate. The serially-diluted compounds are transferred to the 96-well assay plate so that the final concentration of DMSO in the enzyme assay is 1.64%. All assay components are diluted in phosphorylation buffer (20 mm MOPS, 10 mM MgCl2, 1 mM EDTA, 0.015% Brij-35, […], 0.0025% Beta-Mercaptoethanol). The recombinant enzyme is added to the assay plate containing test compound and the reaction is initiated with a substrate solution containing a final concentration of 0.1 mg/ml PGT, 30 uM ATP, and 0.008 mCi/ml ^33P-gammaATP (3000 Ci/mmol). After a 1 hour incubation at 30° C., the reaction is terminated with 10% TCA and incubated at 4° C. for 1 hour. The reaction is filtered onto a Unifilter® GF/C™ filter plate that has been presoaked with 0.1M NaPyrophosphate. Microscint-20 is then added to the dried filter plate and the captured ^33P-phosphorylated PGT is quantitated on a microscintillation plate counter (TopCount.NXT™). Inhibition of the kinase enzymatic activity by the test compound is detected by a reduction in scintillation, and the concentration of compound that is required to inhibit the signal by 50% is reported as the IC50 value for the test compound.
(§1) Compounds described herein were tested in the TrkA and TrkB assays described above.

[2] = target: T2, kinase domain of the human TrkB receptor (amino acids 526-838) (Homo sapiens, UniProt Q16620); assay: TrkB tyrosine kinase assay (33P, polyGluTyr substrate); conditions: 30 uM ATP, 0.1 mg/ml PGT
T2 construct: human TrkB receptor (amino acids 526-838); His; purchased Invitrogen; host or cells: insect cells
T2 sequence (Q16620 510-822): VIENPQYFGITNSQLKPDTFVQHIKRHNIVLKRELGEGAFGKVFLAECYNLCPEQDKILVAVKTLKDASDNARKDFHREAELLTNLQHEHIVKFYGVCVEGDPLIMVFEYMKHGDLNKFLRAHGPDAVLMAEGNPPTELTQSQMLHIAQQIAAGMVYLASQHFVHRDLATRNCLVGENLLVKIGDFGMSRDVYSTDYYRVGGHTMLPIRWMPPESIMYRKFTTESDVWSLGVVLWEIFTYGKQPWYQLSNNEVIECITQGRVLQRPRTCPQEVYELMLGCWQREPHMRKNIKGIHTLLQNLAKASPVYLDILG
Experimental: The ability of compounds of the present invention to inhibit tyrosine kinase activity of TrkB may be measured using a recombinant enzyme in an assay that measures the ability of compounds to inhibit the phosphorylation of the exogenous substrate, polyGluTyr (PGT, 4:1). The kinase domain of the human TrkB receptor (amino acids 526-838) is expressed in insect cells as a histidine (His)-fusion protein and is commercially available from Invitrogen™. The enzyme assay is performed in a 96-well plate. Test compounds are first dissolved in dimethylsulfoxide (DMSO) and then serially-diluted in a 96-well plate. The serially-diluted compounds are transferred to the 96-well assay plate so that the final concentration of DMSO in the enzyme assay is 1.64%. All assay components are diluted in phosphorylation buffer (20 mm MOPS, 10 mM MgCl2, 1 mM EDTA, 0.015% Brij-35, 0.1 mg/ml BSA, 0.0025% Beta-Mercaptoethanol). The recombinant enzyme is added to the assay plate containing test compound and the reaction is initiated with a substrate solution containing a final concentration of 0.1 mg/ml PGT, 30 uM ATP, and 0.008 mCi/ml ^33P-gammaATP (3000 Ci/mmol). After a 1 hour incubation at 30° C., the reaction is terminated with 10% TCA and incubated at 4° C. for 1 hour. The reaction is filtered onto a Unifilter® GF/C™ filter plate that has been pre-soaked with 0.1M NaPyrophosphate. Microscint-20 is then added to the dried filter plate and the captured ^33P-phosphorylated PGT is quantitated on a microscintillation plate counter (TopCount.NXT™). Inhibition of the kinase enzymatic activity by the test compound is detected by a reduction in scintillation, and the concentration of compound that is required to inhibit the signal by 50% is reported as the IC50 value for the test compound.
as §1

[3] = target: Casein Kinase 2 A1 kinase (Homo sapiens, UniProt P68400); assay: CK2A1 kinase assay (33P, TCA precipitation)
Chain of Casein Kinase 2 A1 kinase (P68400 whole entry): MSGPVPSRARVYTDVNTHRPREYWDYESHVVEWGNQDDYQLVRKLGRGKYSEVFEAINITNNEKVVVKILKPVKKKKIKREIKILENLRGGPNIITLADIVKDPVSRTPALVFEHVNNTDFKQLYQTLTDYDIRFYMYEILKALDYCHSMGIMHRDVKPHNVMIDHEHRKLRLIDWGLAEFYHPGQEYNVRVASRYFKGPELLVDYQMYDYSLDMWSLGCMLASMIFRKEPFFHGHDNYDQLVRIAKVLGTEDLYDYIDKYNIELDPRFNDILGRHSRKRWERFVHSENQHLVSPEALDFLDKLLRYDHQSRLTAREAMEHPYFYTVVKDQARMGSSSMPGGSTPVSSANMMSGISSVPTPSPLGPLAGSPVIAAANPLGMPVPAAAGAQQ
Experimental: (§2) Incubation mixtures employed for the Casein Kinase 2 A1 kinase assay contain Casecin Kinase 2 A1 kinase, a synthetic peptide substrate, ATP, ATP-γ-^33 P and a Hepes buffer containing Mg^2+, NaCl, DTT, and Brij-35. Reactions were incubated for 60 minutes at 30° C. and stopped by the addition of trichloroacetic acid (TCA) to a final concentration 8%. TCA precipitates were collected onto GF/C unifilter plates using a Filtermate universal harvester and the filters are quantitated using a TopCount 96/384-well liquid scintillation counter. Dose response curves were generated to determine the concentration required to inhibit 50% of kinase activity (IC50). Compounds were dissolved at 10 mM in dimethyl sulfoxide (DMSO) and evaluated at ten concentrations, each in duplicate. The final concentration of DMSO in the assay is 1.7%. IC50 values were derived by non-linear regression.

[4] = target: Casein Kinase 2 A2 kinase (Homo sapiens, UniProt P19784); assay: CK2A2 kinase assay (33P, TCA precipitation)
Chain of Casein Kinase 2 A2 kinase (P19784 whole entry): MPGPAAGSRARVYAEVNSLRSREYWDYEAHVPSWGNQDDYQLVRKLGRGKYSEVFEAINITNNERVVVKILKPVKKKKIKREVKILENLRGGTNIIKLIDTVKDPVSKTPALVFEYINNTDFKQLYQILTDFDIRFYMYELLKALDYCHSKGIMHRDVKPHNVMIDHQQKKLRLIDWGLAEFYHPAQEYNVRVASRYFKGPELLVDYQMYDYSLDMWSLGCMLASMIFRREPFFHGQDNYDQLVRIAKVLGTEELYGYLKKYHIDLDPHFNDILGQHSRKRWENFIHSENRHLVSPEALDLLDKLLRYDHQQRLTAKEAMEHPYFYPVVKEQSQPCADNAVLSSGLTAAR
Experimental: as §2, with “A2” for “A1”, “Casein” for “Casecin”, “ATP-γ^33P” for “ATP-γ-^33 P”, “Mg^++,” for “Mg^2+,”, “(IC^50).” for “(IC50).”

T1 sequence (P04629 510-781 limits assumed): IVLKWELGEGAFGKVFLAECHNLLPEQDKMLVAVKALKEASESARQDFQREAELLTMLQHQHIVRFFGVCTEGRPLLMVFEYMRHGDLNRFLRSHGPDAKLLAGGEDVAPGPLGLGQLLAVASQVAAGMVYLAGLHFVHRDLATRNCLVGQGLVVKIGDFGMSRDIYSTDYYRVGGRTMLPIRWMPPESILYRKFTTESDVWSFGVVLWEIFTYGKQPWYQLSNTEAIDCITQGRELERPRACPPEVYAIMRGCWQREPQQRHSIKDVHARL

IC50 [1] | IC50 [2] | IC50 [3] | IC50 [4] | SMILES
1 nM | 3 nM |  |  | NC1CCN(c2nc(Nc3cc(OCC4CC4)n[nH]3)c3cccn3n2)CC1 [Example 14, 2-(4-amino-1-piperidinyl)-N-(3-(cyclopropylmethoxy)-1H-pyrazol-5-yl)pyrrolo[2,1-f][1,2,4]triazin-4-amine]
 |  | 84 nM | 6 nM | c1cncc(C2CCN(c3nc(Nc4cc(C5CC5)n[nH]4)c4cccn4n3)C2)c1 (stereo not drawn) [Example 181, N-(3-cyclopropyl-1H-pyrazol-5-yl)-2-(3-(pyridin-3-yl)pyrrolidin-1-yl)pyrrolo[1,2-f][1,2,4]triazin-4-amine]
9 nM | 20 nM |  |  | CCC(C)c1cc(Nc2nc(N3CCC(N)CC3)nn3cccc23)[nH]n1 (stereo not drawn) [Example 19, 2-(4-amino-1-piperidinyl)-N-(3-sec-butyl-1H-pyrazol-5-yl)pyrrolo[2,1-f][1,2,4]triazin-4-amine]
0.8 nM | 1 nM |  |  | C[C@H]1C[C@@H]1c1cc(Nc2nc(N3CCC(N)CC3)nn3cccc23)[nH]n1 [Example 18, 2-(4-amino-1-piperidinyl)-N-(3-((1S,2S)-2-methylcyclopropyl)-1H-pyrazol-5-yl)pyrrolo[2,1-f][1,2,4]triazin-4-amine]
1 nM | 0.7 nM |  |  | N#CCC(=O)NC1CCN(c2nc(Nc3cc(C4CC4)n[nH]3)c3cccn3n2)CC1 [Example 39, 2-cyano-N-(1-(4-((3-cyclopropyl-1H-pyrazol-5-yl)amino)pyrrolo[2,1-f][1,2,4]triazin-2-yl)-4-piperidinyl)acetamide]
56 nM | 86 nM |  |  | CC(C)(C)c1cc(Nc2nc(N3CCC(N)CC3)nn3cccc23)[nH]n1 [Example 21, 2-(4-amino-1-piperidinyl)-N-(3-tert-butyl-1H-pyrazol-5-yl)pyrrolo[2,1-f][1,2,4]triazin-4-amine]
123 nM | 312 nM |  |  | NC1CCN(c2nc(Nc3ccn[nH]3)c3cccn3n2)CC1 [Example 4, 2-(4-amino-1-piperidinyl)-N-1H-pyrazol-5-ylpyrrolo[2,1-f][1,2,4]triazin-4-amine]
0.9 nM | 0.6 nM |  |  | O=C(Cc1cccs1)NC1CCN(c2nc(Nc3cc(C4CC4)n[nH]3)c3cccn3n2)CC1 [Example 49, N-(1-(4-((3-cyclopropyl-1H-pyrazol-5-yl)amino)pyrrolo[2,1-f][1,2,4]triazin-2-yl)-4-piperidinyl)-2-(2-thienyl)acetamide]
5 nM | 10 nM |  |  | N[C@H]1CCN(c2nc(Nc3cc(C4CC4)n[nH]3)c3cccn3n2)C1 [Example 91]
0.6 nM | 2 nM |  |  | NC1CCN(c2nc(Nc3cc(C4CC4)n[nH]3)c3cccn3n2)CC1 [Example 3, 2-(4-amino-1-piperidinyl)-N-(3-cyclopropyl-1H-pyrazol-5-yl)pyrrolo[2,1-f][1,2,4]triazin-4-amine]
0.3 nM | 0.3 nM |  |  | c1ccc(CNC2CCN(c3nc(Nc4cc(C5CC5)n[nH]4)c4cccn4n3)CC2)cc1 [Example 8, 2-(4-(benzylamino)-1-piperidinyl)-N-(3-cyclopropyl-1H-pyrazol-5-yl)pyrrolo[2,1-f][1,2,4]triazin-4-amine]

The next lines start with the molecule.

SMILES | IC50 [1] | IC50 [2] | IC50 [3] | IC50 [4]
Cc1cc(Nc2nc(N3CCOCC3)nn3cccc23)[nH]n1 [Example 95, N-(3-methyl-1H-pyrazol-5-yl)-2-(4-morpholinyl)pyrrolo [2,1-f][1,2,4]triazin-4-amine] | 23 nM | 49 nM |  | 
CCc1cc(Nc2nc(N3CCC(c4ccccc4F)C3)nn3cccc23)[nH]n1 (stereo not drawn) [Example 171, N-(3-Ethyl-1H-pyrazol-5-yl)-2-(3-(2-fluorophenyl)pyrrolidin-1-yl)pyrrolo[1,2-f][1,2,4]triazin-4-amine] |  |  | 154 nM | 11 nM
c1ccc([C@H]2C[C@@H]2c2cc(Nc3nc(N4CCC(c5cccnc5)C4)nn4cccc34)[nH]n2)cc1 (stereo partly drawn) [Example 197, N-(3-((1S,2S)-2-phenylcyclopropyl)-1H-pyrazol-5-yl)-2-(3-(pyridin-3-yl)pyrrolidin-1-yl)pyrrolo[1,2-f][1,2,4]triazin-4-amine] |  |  | 11300 nM | 1020 nM
Cc1cc(Nc2nc(N3CCCC3c3cccnc3)nn3cccc23)[nH]n1 (stereo not drawn) [Example 209, N-(3-methyl-1H-pyrazol-5-yl)-2-(2-(pyridin-3-yl)pyrrolidin-1-yl)pyrrolo[1,2-f][1,2,4]triazin-4-amine] |  |  | 6070 nM | 1100 nM
Cc1cc(Nc2nc(N3CCCC(c4ccccc4)C3)nn3cccc23)[nH]n1 (stereo not drawn) [Example 204, N-(3-methyl-1H-pyrazol-5-yl)-2-(3-phenylpiperidin-1-yl)pyrrolo[1,2-f][1,2,4]triazin-4-amine] |  |  | 1860 nM | 228 nM
O=C(CCc1ccccc1)NC1CCN(c2nc(Nc3cc(C4CC4)n[nH]3)c3cccn3n2)CC1 [Example 43, N-(1-(4-((3-cyclopropyl-1H-pyrazol-5-yl)amino)pyrrolo[2,1-f][1,2,4]triazin-2-yl)-4-piperidinyl)-3-phenylpropanamide] | 0.4 nM | 0.5 nM |  | 
NCC1CCN(c2nc(Nc3cc(-c4ccccc4)n[nH]3)c3cccn3n2)CC1 [Example 97, 2-(4-(aminomethyl)-1-piperidinyl)-N-(3-phenyl-1H-pyrazol-5-yl)pyrrolo[2,1-f][1,2,4]triazin-4-amine] | 24 nM | 48 nM |  | 
Cc1cc(Nc2nc(N3CC[C@@H](O)C3)nn3cccc23)n[nH]1 [Example 70, (3R)-1-(4-((5-methyl-1H-pyrazol-3-yl)amino)pyrrolo[2,1-f][1,2,4]triazin-2-yl)-3-pyrrolidinol] | 23 nM | 38 nM |  | 
Cc1cc(Nc2nc(N3CCNCC3)nn3cccc23)n[nH]1 [Example 74, N-(5-methyl-1H-pyrazol-3-yl)-2-(1-piperazinyl)pyrrolo[2,1-f][1,2,4]triazin-4-amine] | 120 nM | 195 nM |  | 
Cc1cc(Nc2nc(N3CCCC3)nn3cccc23)n[nH]1 [Example 75, N-(5-methyl-1H-pyrazol-3-yl)-2-(1-pyrrolidinyl)pyrrolo[2,1-f][1,2,4]triazin-4-amine] | 5 nM | 9 nM |  | 

— patent publication US7531539B2, “Pyrrolotriazine kinase inhibitors” (Bristol-Myers Squibb Company, priority 2006, dated 2009)
